Reference: paper PMC7068811 (Frontiers in Immunology, 2020)
Where no end group is shown, it is not given here.

Experiments:
mouse PD1 = target: T1, mouse PD1 (Mus musculus, UniProt Q02242); assay: Biacore surface plasmon resonance, binding to mouse PD1; conditions: for KA: 25°C, HEPES pH 7.4; for relative affinity for mouse PD1: compared to WQ20 and HD20 (Table 2)
T1 sequence (Q02242 25-288): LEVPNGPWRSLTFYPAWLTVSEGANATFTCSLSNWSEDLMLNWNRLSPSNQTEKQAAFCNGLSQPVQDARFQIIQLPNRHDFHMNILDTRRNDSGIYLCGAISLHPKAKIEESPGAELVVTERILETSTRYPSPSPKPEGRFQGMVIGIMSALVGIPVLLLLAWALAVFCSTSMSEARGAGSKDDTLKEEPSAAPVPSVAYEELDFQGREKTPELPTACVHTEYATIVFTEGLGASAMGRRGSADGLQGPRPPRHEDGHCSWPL
Method: (§1) Binding experiments were performed on a Biacore T-200 (GE Healthcare Life Sciences, Buckinghamshire, UK) at 25°C. The assay buffer was 10 mM HEPES buffer (pH 7.4), 150 mM NaCl, 3 mM EDTA, and 0.05% P20. The regeneration buffer was 10 mM HEPES buffer (pH 7.4), 150 mM NaCl, 3 mM EDTA, and 0.05% P20. The immobilization buffer was 10 mM sodium acetate at pH 5.0. The flow rate used for immobilizing the ligand was 5 μL/min. The flow rate for kinetics analysis was 30 μL/min. In initial scouting experiments, 12,000 RU of human and 6000 RU of mouse PD1 receptors were directly immobilized on flow cell 2 and flow cell 4 of the CM5 chip using an amine coupling method (EDC/NHS). The unoccupied sites were blocked with 1M ethanol amine. […] Flow cell 1 was kept blank and used for reference subtraction. Binding of an analyte to the ligand was monitored in real-time. Based on the scouting results, full kinetics were performed by immobilizing 10,000 RU of the ligand to a new chip using an analyte concentration of 25 μM, followed by serial dilution to 12.5, 6.25, 3.125, 1.562, 0.78, and 0 μM concentration, or as indicated. Data analysis was performed using software for Biacore 3000, because it has more flexibility in terms of obtaining the binding characteristics with a limited analyte concentration range. […] Chi-square (χ^2) analysis was performed between the actual sensorgram and the sensorgram generated from the BIAnalysis software to determine the accuracy of the analysis. A χ^2 value within 1–2 was considered to be significant (accurate) and below 1 was considered to be highly significant (highly accurate).
(§2) The four peptides identified by phage display were then tested for binding to human and mouse PD1 using the surface plasmon resonance technique.

human PD1 = human PD1 (Homo sapiens, UniProt Q15116); assay: Biacore surface plasmon resonance, binding to human PD1; conditions: for Rmax: maximum binding capacity; for KA: 25°C, HEPES pH 7.4
Method: as §1, §2

[1] = tested on: human PD1 on Jurkat T cells; assay: Competitive inhibition of PD-L1-Fc binding to Jurkat cells overexpressing human PD1; assay type: cell-based; conditions: 10 μM peptide, 30 min on ice, PD-L1-Fc 4 μg/mL; flow cytometry MFI normalized to no peptide; duplicates
human PBMC = assay type: cell-based
P. yoelii sporozoites = assay: Sporozoite challenge and protection against malaria; assay type: in vivo, Plasmodium yoelii (17XNL) in BALB/c mice; conditions: AdPyCS 10^9 virus particles IM; 200 μg IP days 1, 3, 5, 7 where treated; challenge day 12; n = 20/group
Excerpt: Six- to eight-week-old female BALB/c mice were purchased from Taconic (Germantown, NY, USA). All mice were maintained under standard conditions in the Laboratory Animal Research Center of the Rockefeller University, and the protocol was approved by the Institutional Animal Care and Use Committee at the Rockefeller University (Assurance no. A3081-01). A recombinant serotype 5 adenovirus, AdPyCS that expressed Plasmodium yoelii circumsporozoite protein (PyCS) was constructed as previously described ([32]). Wild-type P. yoelii parasites of the 17 XNL strain were maintained in the insect facility of the Division of Parasitology, Department of Microbiology at New York University School of Medicine. […]
Sporozoite challenge experiments were performed as described previously ([32]–[35]). […] Parasitemia was monitored from days 3 to 8 after the sporozoite challenge, by detecting the presence of parasitized red blood cells in thin blood smears to assess for a complete protection against malaria. […]
To evaluate efficacy of the PD1 peptide antagonists as a prophylactic vaccine adjuvant, a rodent malaria model dependent on the generation of protective CD8 T cells was employed. […] On day 12, spleens were harvested and the number of splenic circumsporozoite protein (CS)-specific, IFN-γ-secreting CD8^+ T cells were assessed using an ELISpot assay. […]

[2] = mouse PD1, peptide analyte 0–25 μM
[3] = mouse PD1, peptide analyte 0–25 μM, maximum binding capacity
[4] = human PD1, peptide analyte 0–25 μM

Chain of human PD1 (Q15116 25-288): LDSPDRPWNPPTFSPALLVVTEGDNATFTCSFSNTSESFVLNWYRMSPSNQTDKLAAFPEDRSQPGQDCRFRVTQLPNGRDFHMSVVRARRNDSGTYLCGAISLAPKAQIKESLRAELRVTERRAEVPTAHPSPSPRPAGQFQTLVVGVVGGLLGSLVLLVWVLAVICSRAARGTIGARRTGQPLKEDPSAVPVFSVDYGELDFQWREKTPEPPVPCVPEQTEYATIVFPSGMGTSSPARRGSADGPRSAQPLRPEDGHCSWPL

## HHHQVYQVRSHWTGMHSGHD [HD20]
Mouse PD1; [2]
  KA: 4250 M⁻¹
Mouse PD1; [3]
  Rmax: 76 RU
Human PD1; human PD1, peptide analyte 0–12.5 μM
  Rmax: 3.35 RU
[1]
  reduction in PD-L1-Fc binding: < 30%

## Mouse PD-L1: mouse PD-L1 analyte [reference compound]
Mouse PD1; mouse PD1, mouse PD-L1 analyte 0–50 (head μM)
  Rmax: 259 RU
Mouse PD1; mouse PD1, mouse PD-L1 analyte 0–1000 (head μM)
  Rmax: 1.07 × 10^3 RU

## QTRTVPMPKIHHPPWQNVVP [QP20]
Human PBMC
  cytokine secretion (IFN-γ, IL-17, IL-6): With the exception of QP20, the other PD1-binding peptides significantly increased cytokine secretion at 200 μM relative to tetanus alone
Mouse PD1
  relative affinity for mouse PD1: bound to mouse PD1 with a higher affinity compared to WQ20 and HD20
Mouse PD1; [2]
  KA: 18000 M⁻¹
Mouse PD1; [3]
  Rmax: 13.4 RU
Human PD1; [4]
  KA: 93600 M⁻¹
  Rmax: 3.83 RU
[1]
  reduction in PD-L1-Fc binding: < 30%

## SSYHHFKMPELHFGKNTFHQ [SQ20]
Mouse PD1
  relative affinity for mouse PD1: bound to mouse PD1 with a higher affinity compared to WQ20 and HD20
Mouse PD1; [2]
  KA: 21400 M⁻¹
Mouse PD1; [3]
  Rmax: 12.8 RU
Human PD1; [4]
  KA: 194000 M⁻¹
  Rmax: 4.05 RU
[1]
  reduction in PD-L1-Fc binding: > 30%

## negative control peptide: control peptide is the OVA323−339 peptide (malaria model) (KISQAVHAAHAEINEAG; UniProt P01012 323-339, looked up, fragment)
P. yoelii sporozoites
  protection against malaria: no protection
